Measurements taken from ChEMBL document CHEMBL1135050, “Design and synthesis of 4,5-disubstituted-thiophene-2-amidines as potent urokinase inhibitors” (Bioorg Med Chem Lett, 2002).
Values after ≈ are worked out from the molar mass of the structure shown.

Legend:
[1] = Compound was evaluated for its solubility in water; type: ADME
[2] = target: Urokinase-type plasminogen activator (Homo sapiens, UniProt P00749); experiment: Inhibition of Human kidney cell urokinase; type: cell-based

| Compound | solubility [1] [µM] | Ki [2] [nM] |
| --- | --- | --- |
| Cc1sc(C(=N)N)cc1-c1nc(-c2ccccc2)cs1 | 9000 (≈ 2690 µg/mL) | – |
| CSc1sc(C(=N)N)cc1-c1nc(-c2ccccc2)cs1 | 300 (≈ 99.4 µg/mL) | – |
| CS(=O)(=O)c1sc(C(=N)N)cc1-c1nc(-c2ccc(Cl)cc2)cs1 | – | 2500 |
| N=C(N)c1cc(-c2nc(-c3ccc(Cl)cc3)cs2)c(SCc2ccccc2)s1 | – | 2500 |

Next, values leading:

| solubility [1] [µM] | Ki [2] [nM] | Compound |
| --- | --- | --- |
| – | 58 | COc1ccc(-c2csc(-c3cc(C(=N)N)sc3SC)n2)cc1OC |
| – | 102 | CSc1sc(C(=N)N)cc1-c1nc(-c2ccc(Cl)cc2)cs1 |
| – | 531 | COc1sc(C(=N)N)cc1-c1nc(-c2ccccc2)cs1 |
| 2700 (≈ 846 µg/mL) | 138 | CCc1sc(C(=N)N)cc1-c1nc(-c2ccccc2)cs1 |
